In patent US6518302B1, “Remedies” (Takara Shuzo Co., Ltd., priority 1999, dated 2003):
Like-named read-outs stand apart in the source and are kept apart here.

Legend:
[1] = Conversion into DGE in culture medium (thin-layer chromatography); assay type: in vitro ADME; settings: 10 mM in RPMI 1640 medium with 10% calf serum, 37° C., 4 hours
Procedure: The compound (7) or the compound (9) synthesized in Example 1 was dissolved at a final concentration of 10 mM in RPMI 1640 medium supplemented with 10% calf serum. These samples were allowed to stand at 37° C. for 4 hours. […] each of the samples was then subjected to thin-layer chromatography using chloroform:methanol=5:1 as a developing solvent. Detection was carried out using orcinol-sulfuric acid.
For each sample, a spot with Rf value of 0.5, the same value as that for the compound of general formula IV in which Z is CH2OH and Y is H (L-glycero-1,5-epoxy-1αβ,6-dihydroxy-cis-hex-3-en-2-one, hereinafter referred to as DGE), was detected.

[2] = tested on: Human promyelocytic leukemia HL-60 cells; assay: Antiproliferation activity against HL-60 cells (MTT method); assay type: cell-based; settings: 48 hour incubation; for IC50: Homo sapiens, HL-60 cells, read-out: IC50, concentration at which 50% of the proliferation is inhibited
Procedure: Human promyelocytic leukemia HL-60 cells (ATCC CCL-240) were cultured at 37° C. in RPMI 1640 medium (Gibco) containing 10% of fetal calf serum (JRH Bioscience) which had been treated at 56° C. for 30 minutes, and suspended in the same medium at a concentration of 5000 cells/90 μl. Each 90 μl portion of the suspension was distributed into each well of a 96-well plate (Falcon). To the suspension in each well was added 10 μl of one the following samples, and incubated at 37° C. in the presence of 5% CO2. The samples were 2-, 4-, 8-, 16-, 32-, 64- or 128-dilutions of filter-sterilized 200 mM aqueous solution of the compound (2) obtained in Example 1, 50 mM aqueous solution of the compound (7), 50 mM aqueous solution of the compound (9), 100 mM aqueous solution of the compound (11), 100 mM aqueous solution of the compound (14), 20 mM aqueous solution of the compound (17), 12.5 mM aqueous solution of the compound (19) or 12.5 mM aqueous solution of the compound (21) with sterile water, as well as water. After 48 hour from the initiation of the incubation, the numbers of viable cells calculated based on the absorbance measured according to the MTT method as described in “Apoptosis Jikken Protocol” (Syuzyun-sha, Seiichi Tanuma, ed., pp. 156 (1994)) were compared each other.

[3] = tested on: prostaglandin E2 production in RAW264.7 cells; assay: Inhibition of prostaglandin E2 production induction by LPS (ELISA); assay type: cell-based; settings: compound (7), (14) or (17) at final concentration of 50, 100 or 100 μM, respectively
Procedure: RAW264.7 cells were suspended in Dulbecco's modified Eagle's medium (Bio Whittaker, Code. 12-604F) containing 10% fetal calf serum at a concentration of 3×10^5 cells/ml. 500 μl of the suspension was added to each well of a 48-well microtiter plate and the plate was incubated at 37° C. for 6 hours in the presence of 5% CO2. The compound (7), (14) or (17) prepared in Example 1 was added to the well at a final concentration of 50, 100 or 100 μM, respectively. The plate was incubated for additional 5 hours. 10 μl of 50 μg/ml lipopolysaccharide (LPS, Sigma, Code. L-2012) aqueous solution was then added to the well. After the plate was incubated for additional 12 hours, the amount of prostaglandin E2 was measured. As control groups, a group to which LPS was not added and a group to which the compound (7), (14) or (17) was not added were provided.
After cultivation, the amount of prostaglandin E2 in the culture supernatant was measured using Prostaglandin E2 ELISA Kit (Neogen, Code. 404110). All of the measurements were carried out in triplicate.
FIG. 21 illustrates the prostaglandin E2 concentration in the medium obtained by incubating under various culture conditions. In FIG. 21, the horizontal axis represents the culture conditions and the vertical axis represents the prostaglandin E2 concentration (ng/ml).

[4] = tested on: HL-60 cells (ATCC CCL-240); assay: Proliferation of HL-60 cells with or without hydroxyurea G1 arrest (WST-1); assay type: cell-based, Human; settings: Homo sapiens, 48 hours
Procedure: HL-60 cells (ATCC CCL-240) were suspended in RPMI 1640 medium (Bio Whittaker, 12-702F) containing 10% fetal calf serum (Gibco) and 100 μM hydroxyurea at a concentration of 5×10^5 cells/ml. 20 ml of the suspension was added to a 10-cm Petri dish. The dish was incubated at 37° C. overnight in the presence of 5% CO2 to make the cells arrest at G1 phase. The cells were collected by centrifugation and resuspended in RPMI 1640 medium containing 10% fetal calf serum (Gibco) and 100 μM hydroxyurea at a concentration of 5×10^5 cells/ml. 5 ml of the suspension was added to each well of a 6-well microtiter plate. On the other hand, as cells without the treatment with hydroxyurea, HL-60 cells were suspended in RPMI 1640 medium containing 10% fetal calf serum (Gibco) at a concentration of 1×10^5 cells/ml. 5 ml of the suspension was added to each well of a 6-well microtiter plate. 50 μl of a solution containing DGE at a concentration of 30, 22.5, 15 or 7.5 mM in water, 25 μl of a solution containing the compound (7) at a concentration of 60, 45, 30 or 15 mM in dimethyl sulfoxide, or 25 μl of a solution containing the compound (17) at a concentration of 100, 75, 50 or 25 mM in dimethyl sulfoxide was added to the well containing the cells treated with hydroxyurea. 50 μl of a solution containing DGE at a concentration of 8, 6, 4 or 2 mM in water, 25 μl of a solution containing the compound (7) at a concentration of 30, 22.5, 15 or 7.5 mM in dimethyl sulfoxide, or 25 μl of a solution containing the compound (17) at a concentration of 80, 60, 40 or 20 mM in dimethyl sulfoxide was added to the well containing the cells without the treatment with hydroxyurea. The plate was incubated for additional 48 hours. Cells collected by centrifuging the culture were suspended in 5 ml of fresh RPMI 1640 medium containing 10% fetal calf serum (Gibco). 100 μl of the suspension was used for measuring viable cell number using Premix WST-1 Cell Proliferation Assay System (Takara Shuzo, MK400).
For each of the samples, the concentration at which 50% of the proliferation is inhibited (IC50) for the cells treated with hydroxyurea was higher than that for the cells without the treatment with hydroxyurea. Table 3 summarizes IC50 (μM) for each of the samples. […] Since most of cells in a living body are arrested at G1 phase, it is considered that DGE and R-AhGal compounds (precursors of DGE) are agents less toxic to a living body.

[5] = HL-60 cells arrested at G1 phase with 100 μM hydroxyurea, read-out: IC50, Cells treated with hydroxyurea
[6] = HL-60 cells, read-out: IC50, Cells without treatment with hydroxyurea

Structure (SMILES)	conversion into DGE (spot with Rf value of 0.5, the same value as DGE) [1]	antiproliferation activity against HL-60 cells [2]	IC50 [2] [µM]	inhibition of prostaglandin E2 production induction by LPS [3]	IC50 [4, 5] [µM]	IC50 [4, 6] [µM]
OCC1OC(OC2C(CO)OC(OC3C(CO)OC(OC4C(O)COC4C(O)C(O)O)C(O)C3O)C(O)C2O)C(O)C(O)C1O [Compound (14), 4-O-β-maltotoriosyl-3,6-anhydro-D-galactose]	conversion into DGE was also observed	exhibited antiproliferation activities	113	inhibited the prostaglandin E2 production induction by LPS		
O=C[C@H](O)[C@H]1OC[C@@H](O)[C@@H]1OC(=O)c1ccccc1 [Compound (7), 4-O-benzoyl-3,6-anhydro-D-galactose]		exhibited antiproliferation activities	104	inhibited the prostaglandin E2 production induction by LPS	151	79.1
O=C[C@H](O)[C@H]1OC[C@@H](O)[C@@H]1OCc1ccccc1 [Compound (17), 4-O-benzyl-3,6-anhydro-D-galactose]	conversion into DGE was also observed	exhibited antiproliferation activities	205	inhibited the prostaglandin E2 production induction by LPS	264	190
